Results taken from PubChem BioAssay AID1259407 (Chemical Carcinogenesis Research Information System (CCRIS), 2018).
Activity calls are given as the source filed them. The rule behind the calls is not given here.

Tested on: CCRIS mutagenicity, Ames/micronucleus/aberration tests
Assay: CCRIS mutagenicity studies
[1] = Test System: AMES SALMONELLA TYPHIMURIUM, Strain/Indicator: TA98, Metabolic Activation: NONE, Method: PREINCUBATION
[2] = Test System: AMES SALMONELLA TYPHIMURIUM, Strain/Indicator: TA100, Metabolic Activation: NONE, Method: PREINCUBATION
[3] = Test System: AMES SALMONELLA TYPHIMURIUM, Strain/Indicator: TA1535, Metabolic Activation: NONE, Method: PREINCUBATION
[4] = Test System: AMES SALMONELLA TYPHIMURIUM, Strain/Indicator: TA1537, Metabolic Activation: NONE, Method: PREINCUBATION
[5] = Test System: AMES SALMONELLA TYPHIMURIUM, Strain/Indicator: TA98, Metabolic Activation: NONE, Method: STANDARD PLATE
[6] = Test System: AMES SALMONELLA TYPHIMURIUM, Strain/Indicator: TA98, Metabolic Activation: RAT, LIVER, S-9, AROCLOR 1254, Method: STANDARD PLATE

## c1cc2c3c(cccc3c1)CC2
Test System: AMES SALMONELLA TYPHIMURIUM, Strain/Indicator: TA97, Metabolic Activation: HAMSTER, LIVER, S-9, AROCLOR 1254 (10%), Method: PREINCUBATION
  mutagenic call: inactive; negative
Test System: AMES SALMONELLA TYPHIMURIUM, Strain/Indicator: TA97, Metabolic Activation: HAMSTER, LIVER, S-9, AROCLOR 1254 (30%), Method: PREINCUBATION
  mutagenic call: inactive; negative
Test System: AMES SALMONELLA TYPHIMURIUM, Strain/Indicator: TA97, Metabolic Activation: NONE, Method: PREINCUBATION
  mutagenic call: inactive; negative
Test System: AMES SALMONELLA TYPHIMURIUM, Strain/Indicator: TA97, Metabolic Activation: RAT, LIVER, S-9, AROCLOR 1254 (10%), Method: PREINCUBATION
  mutagenic call: inactive; negative
Test System: AMES SALMONELLA TYPHIMURIUM, Strain/Indicator: TA97, Metabolic Activation: RAT, LIVER, S-9, AROCLOR 1254 (30%), Method: PREINCUBATION
  mutagenic call: inactive; negative
Test System: AMES SALMONELLA TYPHIMURIUM, Strain/Indicator: TA98, Metabolic Activation: HAMSTER, LIVER, S-9, AROCLOR 1254 (10%), Method: PREINCUBATION
  mutagenic call: inactive; negative
Test System: AMES SALMONELLA TYPHIMURIUM, Strain/Indicator: TA98, Metabolic Activation: HAMSTER, LIVER, S-9, AROCLOR 1254 (30%), Method: PREINCUBATION
  mutagenic call: inactive; negative
[1]
  mutagenic call: inactive; negative
Test System: AMES SALMONELLA TYPHIMURIUM, Strain/Indicator: TA98, Metabolic Activation: RAT, LIVER, S-9, AROCLOR 1254 (10%), Method: PREINCUBATION
  mutagenic call: inactive; negative
Test System: AMES SALMONELLA TYPHIMURIUM, Strain/Indicator: TA98, Metabolic Activation: RAT, LIVER, S-9, AROCLOR 1254 (30%), Method: PREINCUBATION
  mutagenic call: inactive; negative
Test System: AMES SALMONELLA TYPHIMURIUM, Strain/Indicator: TA100, Metabolic Activation: HAMSTER, LIVER, S-9, AROCLOR 1254 (10%), Method: PREINCUBATION
  mutagenic call: inactive; negative
Test System: AMES SALMONELLA TYPHIMURIUM, Strain/Indicator: TA100, Metabolic Activation: HAMSTER, LIVER, S-9, AROCLOR 1254 (30%), Method: PREINCUBATION
  mutagenic call: inactive; negative
[2]
  mutagenic call: inactive; negative
Test System: AMES SALMONELLA TYPHIMURIUM, Strain/Indicator: TA100, Metabolic Activation: RAT, LIVER, S-9, AROCLOR 1254 (10%), Method: PREINCUBATION
  mutagenic call: inactive; negative
Test System: AMES SALMONELLA TYPHIMURIUM, Strain/Indicator: TA100, Metabolic Activation: RAT, LIVER, S-9, AROCLOR 1254 (30%), Method: PREINCUBATION
  mutagenic call: inactive; negative
Test System: AMES SALMONELLA TYPHIMURIUM, Strain/Indicator: TA1535, Metabolic Activation: HAMSTER, LIVER, S-9, AROCLOR 1254 (10%), Method: PREINCUBATION
  mutagenic call: inactive; negative
Test System: AMES SALMONELLA TYPHIMURIUM, Strain/Indicator: TA1535, Metabolic Activation: HAMSTER, LIVER, S-9, AROCLOR 1254 (30%), Method: PREINCUBATION
  mutagenic call: inactive; negative
[3]
  mutagenic call: inactive; negative
Test System: AMES SALMONELLA TYPHIMURIUM, Strain/Indicator: TA1535, Metabolic Activation: RAT, LIVER, S-9, AROCLOR 1254 (10%), Method: PREINCUBATION
  mutagenic call: inactive; negative
Test System: AMES SALMONELLA TYPHIMURIUM, Strain/Indicator: TA1535, Metabolic Activation: RAT, LIVER, S-9, AROCLOR 1254 (30%), Method: PREINCUBATION
  mutagenic call: inactive; negative
Test System: AMES SALMONELLA TYPHIMURIUM, Strain/Indicator: TA1537, Metabolic Activation: HAMSTER, LIVER, S-9, AROCLOR 1254 (30%), Method: PREINCUBATION
  mutagenic call: inactive; negative
[4]
  mutagenic call: inactive; negative
Test System: AMES SALMONELLA TYPHIMURIUM, Strain/Indicator: TA1537, Metabolic Activation: RAT, LIVER, S-9, AROCLOR 1254 (30%), Method: PREINCUBATION
  mutagenic call: inactive; negative

## O=C1Cc2cc3cc([N+](=O)[O-])ccc3cc2[C@H](O)[C@H]1O
[5]
  mutagenic call: inactive; negative
[6]
  mutagenic call: inactive; negative

## Cn1c2ccccc2c2cc([N+](=O)[O-])ccc21
[5]
  mutagenic call: active; positive
Test System: AMES SALMONELLA TYPHIMURIUM, Strain/Indicator: TA98, Metabolic Activation: RAT LIVER S-9, AROCLOR 1254, Method: STANDARD PLATE
  mutagenic call: active; positive
Test System: AMES SALMONELLA TYPHIMURIUM, Strain/Indicator: TA100, Metabolic Activation: NONE, Method: STANDARD PLATE
  mutagenic call: active; positive
Test System: AMES SALMONELLA TYPHIMURIUM, Strain/Indicator: TA100, Metabolic Activation: RAT LIVER S-9, AROCLOR 1254, Method: STANDARD PLATE
  mutagenic call: active; positive

## CN(C=O)N=O
Test System: AMES SALMONELLA TYPHIMURIUM, Strain/Indicator: TA1535, Metabolic Activation: NONE, Method: STANDARD PLATE
  mutagenic call: active; positive
Test System: E. COLI, Strain/Indicator: WU3610, Metabolic Activation: NONE, Method: SUSPENSION/PLATE
  mutagenic call: active; positive

## COc1nsc2ccc(N)cc12
Test System: AMES SALMONELLA TYPHIMURIUM, Strain/Indicator: TA100, Metabolic Activation: S-9, Method: STANDARD PLATE
  mutagenic call: active; positive

## CC(=O)Nc1ccc([N+](=O)[O-])cc1
Test System: AMES SALMONELLA TYPHIMURIUM, Strain/Indicator: TA98(NR), Metabolic Activation: NONE, Method: STANDARD PLATE
  mutagenic call: inactive; negative
Test System: AMES SALMONELLA TYPHIMURIUM, Strain/Indicator: TA98(NR), Metabolic Activation: RAT, LIVER, S-9, AROCLOR 1254, Method: STANDARD PLATE
  mutagenic call: inactive; negative
[5]
  mutagenic call: inactive; negative
[6]
  mutagenic call: inactive; negative
Test System: AMES SALMONELLA TYPHIMURIUM, Strain/Indicator: TA1538(NR), Metabolic Activation: NONE, Method: STANDARD PLATE
  mutagenic call: inactive; negative
Test System: AMES SALMONELLA TYPHIMURIUM, Strain/Indicator: TA1538(NR), Metabolic Activation: RAT, LIVER, S-9, AROCLOR 1254, Method: STANDARD PLATE
  mutagenic call: inactive; negative
Test System: AMES SALMONELLA TYPHIMURIUM, Strain/Indicator: TA1538, Metabolic Activation: NONE, Method: STANDARD PLATE
  mutagenic call: inactive; negative
Test System: AMES SALMONELLA TYPHIMURIUM, Strain/Indicator: TA1538, Metabolic Activation: RAT, LIVER, S-9, AROCLOR 1254, Method: STANDARD PLATE
  mutagenic call: inactive; negative

## CNC(=O)c1cccc(NCC(=O)NCCc2ccc(OC)c(OC)c2)c1
[1]
  mutagenic call: inactive; negative
Test System: AMES SALMONELLA TYPHIMURIUM, Strain/Indicator: TA98, Metabolic Activation: S-9, Method: PREINCUBATION
  mutagenic call: inactive; negative
[2]
  mutagenic call: inactive; negative
Test System: AMES SALMONELLA TYPHIMURIUM, Strain/Indicator: TA100, Metabolic Activation: S-9, Method: PREINCUBATION
  mutagenic call: inactive; negative
[3]
  mutagenic call: inactive; negative
Test System: AMES SALMONELLA TYPHIMURIUM, Strain/Indicator: TA1535, Metabolic Activation: S-9, Method: PREINCUBATION
  mutagenic call: inactive; negative
[4]
  mutagenic call: inactive; negative
Test System: AMES SALMONELLA TYPHIMURIUM, Strain/Indicator: TA1537, Metabolic Activation: S-9, Method: PREINCUBATION
  mutagenic call: inactive; negative
Test System: E. COLI, Strain/Indicator: WP2 UVRA, Metabolic Activation: NONE, Method: PREINCUBATION
  mutagenic call: inactive; negative
Test System: E. COLI, Strain/Indicator: WP2 UVRA, Metabolic Activation: S-9, Method: PREINCUBATION
  mutagenic call: inactive; negative

## Cc1ccc2c(ccc3[nH]c4ccc5ccccc5c4c32)c1
Test System: AMES SALMONELLA TYPHIMURIUM, Strain/Indicator: TA100, Metabolic Activation: RAT, LIVER, S-9, AROCLOR 1254, Method: STANDARD PLATE
  mutagenic call: active; positive

## CCOC(=O)Nc1cccc(OC(=O)Nc2ccccc2)c1
Test System: Ames Salmonella typhimurium, Strain/Indicator: TA98, Metabolic Activation: None
  mutagenic call: inactive; negative
Test System: Ames Salmonella typhimurium, Strain/Indicator: TA98, Metabolic Activation: Rat, Liver, S-9
  mutagenic call: inactive; negative
Test System: Ames Salmonella typhimurium, Strain/Indicator: TA100, Metabolic Activation: None
  mutagenic call: inactive; negative
Test System: Ames Salmonella typhimurium, Strain/Indicator: TA100, Metabolic Activation: Rat, Liver, S-9
  mutagenic call: inactive; negative
Test System: Ames Salmonella typhimurium, Strain/Indicator: TA1535, Metabolic Activation: None
  mutagenic call: inactive; negative
Test System: Ames Salmonella typhimurium, Strain/Indicator: TA1535, Metabolic Activation: Rat, Liver, S-9
  mutagenic call: inactive; negative
Test System: Ames Salmonella typhimurium, Strain/Indicator: TA1537, Metabolic Activation: None
  mutagenic call: inactive; negative
Test System: Ames Salmonella typhimurium, Strain/Indicator: TA1537, Metabolic Activation: Rat, Liver, S-9
  mutagenic call: inactive; negative
Test System: E. coli, Strain/Indicator: WP2, Metabolic Activation: None, Method: Not reported by DPR
  mutagenic call: inactive; negative
Test System: E. coli, Strain/Indicator: WP2, Metabolic Activation: Rat, Liver, S-9, Method: Not reported by DPR
  mutagenic call: inactive; negative
